Usually Emax stands for the size of the effect at its maximum, as opposed to the concentration needed.

Like-named read-outs stand apart in the source and are kept apart here.

We go through 15 compounds from US10167272B2, “Muscarinic agonists” (Heptares Therapeutics Limited, priority 2015, dated 2019).

Common to all, as to format: cell-based
The target in test [1] is T1, human muscarinic M1 receptor (Homo sapiens, UniProt P11229).
T1 sequence (P11229 1-460): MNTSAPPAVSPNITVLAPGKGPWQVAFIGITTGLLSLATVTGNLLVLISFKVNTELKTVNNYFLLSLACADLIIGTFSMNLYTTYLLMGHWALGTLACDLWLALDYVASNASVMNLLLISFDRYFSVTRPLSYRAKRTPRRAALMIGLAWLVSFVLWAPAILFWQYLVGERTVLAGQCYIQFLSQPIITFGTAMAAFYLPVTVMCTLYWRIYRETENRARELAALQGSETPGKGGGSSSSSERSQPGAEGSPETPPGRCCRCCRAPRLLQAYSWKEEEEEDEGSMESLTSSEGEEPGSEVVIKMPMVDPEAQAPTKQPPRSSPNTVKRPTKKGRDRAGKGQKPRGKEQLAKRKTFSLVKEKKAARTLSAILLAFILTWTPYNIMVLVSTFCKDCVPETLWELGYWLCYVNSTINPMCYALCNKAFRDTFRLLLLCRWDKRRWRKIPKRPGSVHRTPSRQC
Kind of test: Alphascreen Surefire phospho-ERK1/2 functional assay, M1. Particulars: phospho-ERK1/2; for EC50 / % Emax cf. ACh (M1): CHO cells stably expressing human M1; for EC50: read-out: pEC50 M1 (converted); for Emax: CHO, read-out: % Emax cf. ACh (M1), CHO cells stably expressing human M1; for Emax / % Emax cf. ACh (M1): relative to ACh. The method, then: (§1) ERK1/2 phosphorylation is a downstream consequence of both Gq/11 and Gi/o protein coupled receptor activation, making it highly suitable for the assessment of M1, M3 (Gq/11 coupled) and M2, M4 receptors (Gi/o coupled), rather than using different assay formats for different receptor subtypes. CHO cells stably expressing the human muscarinic M1, M2, M3 or M4 receptor were plated (25K/well) onto 96-well tissue culture plates in MEM-alpha+10% dialysed FBS. Once adhered, cells were serum-starved overnight. Agonist stimulation was performed by the addition of 5 μL agonist to the cells for 5 min (37° C.). Media was removed and 50 μL of lysis buffer added. After 15 min, a 4 μL sample was transferred to 384-well plate and 7 μL of detection mixture added.
(In general: Alpha assays give light when donor and acceptor beads are brought close together.)

Test [2] has as its target T2, human muscarinic M2 receptor (Homo sapiens, UniProt P08172).
T2 sequence (P08172 1-466): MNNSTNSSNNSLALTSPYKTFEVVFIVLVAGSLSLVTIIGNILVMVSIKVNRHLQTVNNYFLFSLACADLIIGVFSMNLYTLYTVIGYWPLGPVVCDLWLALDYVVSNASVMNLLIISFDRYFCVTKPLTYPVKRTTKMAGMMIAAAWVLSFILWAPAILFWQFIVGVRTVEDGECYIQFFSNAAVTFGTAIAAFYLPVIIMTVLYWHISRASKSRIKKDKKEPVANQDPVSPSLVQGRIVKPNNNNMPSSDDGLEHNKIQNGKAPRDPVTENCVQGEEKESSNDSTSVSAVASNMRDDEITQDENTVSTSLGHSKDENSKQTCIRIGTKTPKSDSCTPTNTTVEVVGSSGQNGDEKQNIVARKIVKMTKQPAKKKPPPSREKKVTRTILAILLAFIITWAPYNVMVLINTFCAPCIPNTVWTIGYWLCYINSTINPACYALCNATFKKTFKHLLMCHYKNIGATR
The test can be described thus: Alphascreen Surefire phospho-ERK1/2 functional assay, M2. The conditions noted are these: for EC50: CHO cells stably expressing human M2, read-out: pEC50 M2 (converted); for Emax: CHO, read-out: % Emax cf. ACh (M2), CHO cells stably expressing human M2, relative to ACh. The method, then:
as §1

The target in test [3] is T3, human muscarinic M3 receptor (Homo sapiens, UniProt P20309).
T3 construct: expressed in transfected cells
T3 sequence (P20309 whole entry): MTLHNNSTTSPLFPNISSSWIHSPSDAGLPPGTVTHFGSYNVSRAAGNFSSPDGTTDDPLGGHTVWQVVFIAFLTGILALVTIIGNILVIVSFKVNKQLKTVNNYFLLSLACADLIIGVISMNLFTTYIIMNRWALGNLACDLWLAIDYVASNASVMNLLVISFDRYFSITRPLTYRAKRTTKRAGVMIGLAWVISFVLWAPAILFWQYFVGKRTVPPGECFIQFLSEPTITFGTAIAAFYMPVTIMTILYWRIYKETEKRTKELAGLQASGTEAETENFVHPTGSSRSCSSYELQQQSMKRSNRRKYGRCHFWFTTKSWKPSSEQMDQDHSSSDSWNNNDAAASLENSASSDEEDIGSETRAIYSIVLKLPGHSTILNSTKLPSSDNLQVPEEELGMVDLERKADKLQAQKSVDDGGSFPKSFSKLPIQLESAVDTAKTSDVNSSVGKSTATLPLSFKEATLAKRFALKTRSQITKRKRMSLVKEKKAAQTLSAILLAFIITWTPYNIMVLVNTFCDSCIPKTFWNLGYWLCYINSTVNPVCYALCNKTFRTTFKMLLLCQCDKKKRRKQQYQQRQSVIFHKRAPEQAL
The test can be described thus: Alphascreen Surefire phospho-ERK1/2 functional assay, M3. Particulars: phospho-ERK1/2; for EC50: CHO cells stably expressing human M3, read-out: pEC50 M3 (converted); for Emax: CHO, read-out: % Emax cf. ACh (M3), CHO cells stably expressing human M3, relative to ACh. The method, then: as §1

Test [4] addresses T4, human muscarinic M4 receptor (Homo sapiens, UniProt P08173).
T4 construct: expressed in transfected cells
T4 sequence (P08173 1-479): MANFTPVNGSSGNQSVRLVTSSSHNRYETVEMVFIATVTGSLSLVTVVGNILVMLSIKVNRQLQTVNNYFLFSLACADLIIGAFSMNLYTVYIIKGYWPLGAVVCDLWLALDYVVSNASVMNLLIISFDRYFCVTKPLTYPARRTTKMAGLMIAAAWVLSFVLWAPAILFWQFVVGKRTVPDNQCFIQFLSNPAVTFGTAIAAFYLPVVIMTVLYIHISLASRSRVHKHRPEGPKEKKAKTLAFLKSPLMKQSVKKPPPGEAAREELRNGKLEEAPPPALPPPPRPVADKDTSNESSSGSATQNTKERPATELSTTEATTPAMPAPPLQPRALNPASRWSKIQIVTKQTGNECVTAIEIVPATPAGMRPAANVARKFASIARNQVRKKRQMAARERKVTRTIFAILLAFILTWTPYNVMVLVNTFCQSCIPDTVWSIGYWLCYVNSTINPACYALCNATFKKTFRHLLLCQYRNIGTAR
Kind of test: Alphascreen Surefire phospho-ERK1/2 functional assay, M4. Particulars: for Emax: CHO, read-out: % Emax cf. ACh (M4), CHO cells stably expressing human M4; for Emax / % Emax cf. ACh (M4): relative to ACh.

Where [5] appears, read: CHO cells stably expressing human M4, phospho-ERK1/2, read-out: pEC50 M4 (converted).
The mark [6] stands for this setting: CHO cells stably expressing human M4, phospho-ERK1/2.

Consider `CCOC(=O)N1CCC2(CC(N3CCC(N(CCOC)CC(F)(F)F)CC3)C2)C1` (single isomer, unassigned) [2-52 Isomer 2], for which the EC50 is 398 nM in test [1], more than 20000 nM in test [2], more than 20000 nM in test [3] and 25.1 nM in test [4] (setting [5]). In addition, the Emax was 93% in test [1], 7% in test [2], 7% in test [3] and 106% in test [4] (phospho-ERK1/2).
On to `[2H]C([2H])(C)OC(=O)N1CCC2(CC(N3CCC(N(CC)C(C)=O)CC3)C2)C1` (single isomer, unassigned) [2-38 Isomer 2], for which the EC50 was 631 nM in test [1], more than 20000 nM in test [2], more than 20000 nM in test [3] and 20 nM in test [4] (setting [5]). The Emax came out at 76% in test [1], 21% in test [2], 1% in test [3] and 115% in test [4] (phospho-ERK1/2).
On to `CCOC(=O)N1CCC2(CC(N3CCC(N(CC(=O)OC)C4CC4)CC3)C2)C1` (single isomer, unassigned) [2-9 Isomer 2], for which the EC50 in test [1] is more than 20000 nM; in test [2] it was more than 20000 nM; in test [3] it was more than 20000 nM; in test [4] (setting [5]) it was 100 nM. Besides, the Emax amounted to 14% in test [1], 6% in test [2], 5% in test [3] and 92% in test [4] (phospho-ERK1/2).
As for `CCOC(=O)N1CC2(CCC(N3CCC(N(CC)C(C)=O)CC3)C2)C1` (single isomer, unassigned) [3-3 Isomer 2], the EC50 is more than 20000 nM in test [1], more than 20000 nM in test [2], more than 20000 nM in test [3] and 3.98 nM in test [4] (setting [5]). Also, the Emax in test [1] is 18%; in test [2], 3%; in test [3], 21%; in test [4] (phospho-ERK1/2) it was 93%.
Consider `CCOC(=O)N1CCC2(CC(N3CCC(N(CC)C(=O)OC)CC3)C2)C1` (single isomer, unassigned) [2-39 Isomer 2], for which the EC50 in test [1] was 316 nM; in test [2], more than 20000 nM; in test [3], more than 20000 nM; in test [4] (setting [5]) it was 25.1 nM. Besides, the Emax in test [1] came to 39%; in test [2] it was 12%; in test [3], 25%; in test [4] (phospho-ERK1/2), 126%.
Take `CCOC(=O)N1CCC2(CC(N3CCC(N(CC(F)(F)F)C(=O)OC)CC3)C2)C1` (single isomer, unassigned) [2-42 Isomer 2]: the EC50 was 1580 nM in test [1], more than 20000 nM in test [2], more than 20000 nM in test [3] and 100 nM in test [4] (setting [5]). For the same compound, the Emax turned out to be 120% in test [1], 21% in test [2], 39% in test [3] and 112% in test [4] (phospho-ERK1/2).
In the case of `CCOC(=O)N1CCC2(CC(N3CCC(N(CC4(OC)CCC4)C(C)=O)CC3)C2)C1` (single isomer, unassigned) [2-30 Isomer 2], the EC50 in test [1] was 100 nM; in test [2], 5010 nM; in test [3] it was more than 20000 nM; in test [4] (setting [5]) it was 79.4 nM. In addition, the “% Emax cf. ACh (M1)” value in test [1] was found to be 104%. For the same compound, the figures for the Emax in test [2] and in test [3] were 42% and 26%, respectively. For the same compound, the “% Emax cf. ACh (M4)” value in test [4] (setting [6]) was found to be 96%.
As for `CCOC(=O)N1CCC2(CC(N3CCC(N(CC(C)(C)OC)C(C)=O)CC3)C2)C1` (single isomer, unassigned) [2-29 Isomer 2], the EC50 in test [1] was 200 nM; in test [2], 1260 nM; in test [3] it was more than 20000 nM; in test [4] (setting [5]) it was 158 nM. For the same compound, the “% Emax cf. ACh (M1)” value in test [1] turned out to be 99%. The Emax in test [2] was 29%; in test [3], 73%. The “% Emax cf. ACh (M4)” value in test [4] (setting [6]) is 84%.
As to `CCOC(=O)N1CCC2(CC(N3CCC(C(C)N(C(=O)CC)C4CC4)CC3)C2)C1` (single isomer, unassigned) [2-14 Isomer 2], the EC50 is 2510 nM in test [1], more than 20000 nM in test [2], more than 20000 nM in test [3] and 100 nM in test [4] (setting [5]). Further, the Emax in test [1] turned out to be 47%; in test [2], 12%; in test [3] it was 5%; in test [4] (phospho-ERK1/2), 108%.
Consider `CCOC(=O)N1CCC2(CC(N3CCC(N(CC)CCF)CC3)C2)C1` (single isomer, unassigned) [2-45 Isomer 2], for which the EC50 in test [1] was 631 nM; in test [2], more than 20000 nM; in test [3], more than 20000 nM; in test [4] (pEC50 M4) it was 63.1 nM. Moreover, the Emax in test [1] is 30%; in test [2], 9%; in test [3], 16%; in test [4] (phospho-ERK1/2) it was 45%.
On to `CCOC(=O)N1CC2(CCC(N3CCC(N(C(C)=O)C4CC4)CC3)C2)C1` (racemic) [3-1 Racemic], for which the EC50 in test [1] is more than 20000 nM; in test [2] it was more than 20000 nM; in test [3], more than 20000 nM; in test [4] (setting [5]), 10 nM. Moreover, the Emax worked out at 19% in test [1], 2% in test [2], 5% in test [3] and 46% in test [4] (phospho-ERK1/2).
For the compound `CCOC(=O)N1CCC2(CC(N3CCC(C(C)N(C(C)=O)C4CC4)CC3)C2)C1` (single isomer, unassigned) [2-13 Isomer 2], the EC50 is more than 20000 nM in test [1], more than 20000 nM in test [2], more than 20000 nM in test [3] and 126 nM in test [4] (setting [5]). Besides, the Emax in test [1] turned out to be 18%; in test [2], 5%; in test [3], 4%; in test [4] (phospho-ERK1/2), 88%.
Turning to `CCOC(=O)N1CCC2(CC(N3CCC(N(C(C)=O)C4CCC4)CC3)C2)C1` (single isomer, unassigned) [2-6 Isomer 2], the EC50 was 100 nM in test [1], more than 20000 nM in test [2], more than 20000 nM in test [3] and 31.6 nM in test [4] (setting [5]). In addition, the maximal effect (Emax) in test [1] was determined as 101%; in test [2], 7%; in test [3], 14%; in test [4] (phospho-ERK1/2) it was 98%.
For the compound `CCOC(=O)N1CCC2(CC(N3CCC(N(C(=O)CC)C4CC4)CC3)C2)C1` (single isomer, unassigned) [2-5 Isomer 2], the EC50 in test [1] was 631 nM; in test [2] it was more than 20000 nM; in test [3], more than 20000 nM; in test [4] (setting [5]), 100 nM. In addition, the Emax was 57% in test [1], 5% in test [2], 5% in test [3] and 91% in test [4] (phospho-ERK1/2).
`CCOC(=O)N1CCC2(CC(N3CCC(N(C=O)CC)CC3)C2)C1` (single isomer, unassigned) [2-16 Isomer 2]: the EC50 is 398 nM in test [1], more than 20000 nM in test [2], more than 20000 nM in test [3] and 39.8 nM in test [4] (setting [5]). Also, the Emax came to 89% in test [1], 5% in test [2], 2% in test [3] and 91% in test [4] (phospho-ERK1/2).
